Laboratory results as given in ChEMBL document CHEMBL4507259 (2021).

What was measured:
[1] = molecular target: Tyrosine-protein kinase SYK (Homo sapiens) (UniProt P43405); conditions: Compound concentration 1000.0 nM
[2] = molecular target: Ephrin type-A receptor 7 (Homo sapiens) (UniProt Q15375); conditions: Compound concentration 1000.0 nM
[3] = system: Mast/stem cell growth factor receptor Kit (Homo sapiens), P10721 [D816V]; conditions: Compound concentration 1000.0 nM
[4] = molecular target: T1, Muscarinic acetylcholine receptor M2 (Homo sapiens) (UniProt P08172); conditions: Compound concentration 10.0 uM
T1 sequence (whole entry): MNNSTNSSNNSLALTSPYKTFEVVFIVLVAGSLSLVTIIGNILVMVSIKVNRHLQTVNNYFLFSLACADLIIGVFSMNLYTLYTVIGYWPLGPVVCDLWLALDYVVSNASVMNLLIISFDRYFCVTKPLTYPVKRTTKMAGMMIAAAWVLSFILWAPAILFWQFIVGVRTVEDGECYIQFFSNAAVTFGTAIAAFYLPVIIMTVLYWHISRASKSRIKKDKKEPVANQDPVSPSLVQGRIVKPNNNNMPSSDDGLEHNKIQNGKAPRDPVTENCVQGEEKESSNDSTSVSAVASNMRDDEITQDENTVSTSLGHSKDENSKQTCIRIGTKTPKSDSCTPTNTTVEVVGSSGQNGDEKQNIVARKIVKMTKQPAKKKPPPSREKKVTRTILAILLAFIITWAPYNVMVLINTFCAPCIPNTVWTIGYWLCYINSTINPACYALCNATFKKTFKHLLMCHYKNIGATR

[5] = system: Phosphatidylinositol 4,5-bisphosphate 3-kinase catalytic subunit alpha isoform (Homo sapiens), P42336 [I800L]; conditions: Compound concentration 1000.0 nM
Phosphatidylinositol 4,5-bisphosphate 3-kinase catalytic subunit alpha isoform (Homo sapiens), P42336 [I800L], sequence (P42336 whole entry I800L, canonical isoform): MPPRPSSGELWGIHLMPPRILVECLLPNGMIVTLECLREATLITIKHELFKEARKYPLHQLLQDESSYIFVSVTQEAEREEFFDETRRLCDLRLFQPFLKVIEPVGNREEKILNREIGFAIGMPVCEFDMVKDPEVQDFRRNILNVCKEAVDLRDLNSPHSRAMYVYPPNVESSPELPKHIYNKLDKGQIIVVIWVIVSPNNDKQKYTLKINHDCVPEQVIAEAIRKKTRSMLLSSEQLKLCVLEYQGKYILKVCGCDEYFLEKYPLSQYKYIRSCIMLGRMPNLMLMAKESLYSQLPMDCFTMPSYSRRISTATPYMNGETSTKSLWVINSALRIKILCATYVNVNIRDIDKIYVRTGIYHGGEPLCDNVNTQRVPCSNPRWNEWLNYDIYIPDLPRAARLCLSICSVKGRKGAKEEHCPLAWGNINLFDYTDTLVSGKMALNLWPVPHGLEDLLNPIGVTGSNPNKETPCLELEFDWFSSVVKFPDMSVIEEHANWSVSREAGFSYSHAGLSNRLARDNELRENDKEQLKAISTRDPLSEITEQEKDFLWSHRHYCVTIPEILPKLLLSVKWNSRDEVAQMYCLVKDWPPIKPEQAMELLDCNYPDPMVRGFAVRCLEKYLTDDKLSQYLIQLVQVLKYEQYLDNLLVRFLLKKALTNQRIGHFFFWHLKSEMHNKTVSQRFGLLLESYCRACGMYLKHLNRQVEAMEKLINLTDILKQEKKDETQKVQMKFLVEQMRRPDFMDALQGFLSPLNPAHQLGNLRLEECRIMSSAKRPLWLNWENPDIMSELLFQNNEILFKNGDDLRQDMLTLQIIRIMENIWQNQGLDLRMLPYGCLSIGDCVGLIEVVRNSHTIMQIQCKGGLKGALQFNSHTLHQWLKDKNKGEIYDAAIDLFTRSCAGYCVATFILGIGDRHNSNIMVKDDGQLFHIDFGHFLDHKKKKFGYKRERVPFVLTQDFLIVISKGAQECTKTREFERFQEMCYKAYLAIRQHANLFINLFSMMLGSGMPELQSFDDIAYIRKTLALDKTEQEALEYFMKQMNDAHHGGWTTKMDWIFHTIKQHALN

[6] = molecular target: D(1A) dopamine receptor (Homo sapiens) (UniProt P21728); assay: D1 (h) CEREP ligand profiling; conditions: filed as antagonist, Compound concentration 10.0 uM
D(1A) dopamine receptor (Homo sapiens), sequence (P21728 whole entry): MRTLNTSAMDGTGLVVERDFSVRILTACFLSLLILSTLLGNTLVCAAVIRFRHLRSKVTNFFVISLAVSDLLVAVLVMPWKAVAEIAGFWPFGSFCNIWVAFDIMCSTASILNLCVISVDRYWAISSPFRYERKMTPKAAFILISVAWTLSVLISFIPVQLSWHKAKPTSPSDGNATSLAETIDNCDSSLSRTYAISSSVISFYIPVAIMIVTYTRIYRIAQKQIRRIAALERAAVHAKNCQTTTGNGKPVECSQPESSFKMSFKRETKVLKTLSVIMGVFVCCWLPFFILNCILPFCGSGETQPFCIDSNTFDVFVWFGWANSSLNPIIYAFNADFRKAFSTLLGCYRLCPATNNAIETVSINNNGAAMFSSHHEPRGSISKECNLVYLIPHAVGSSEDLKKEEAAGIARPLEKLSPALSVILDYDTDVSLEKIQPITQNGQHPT

[7] = molecular target: Phosphatidylinositol 4-kinase beta (Homo sapiens) (UniProt Q9UBF8); conditions: Compound concentration 1000.0 nM
Phosphatidylinositol 4-kinase beta (Homo sapiens), sequence (Q9UBF8 2-816 limits assumed): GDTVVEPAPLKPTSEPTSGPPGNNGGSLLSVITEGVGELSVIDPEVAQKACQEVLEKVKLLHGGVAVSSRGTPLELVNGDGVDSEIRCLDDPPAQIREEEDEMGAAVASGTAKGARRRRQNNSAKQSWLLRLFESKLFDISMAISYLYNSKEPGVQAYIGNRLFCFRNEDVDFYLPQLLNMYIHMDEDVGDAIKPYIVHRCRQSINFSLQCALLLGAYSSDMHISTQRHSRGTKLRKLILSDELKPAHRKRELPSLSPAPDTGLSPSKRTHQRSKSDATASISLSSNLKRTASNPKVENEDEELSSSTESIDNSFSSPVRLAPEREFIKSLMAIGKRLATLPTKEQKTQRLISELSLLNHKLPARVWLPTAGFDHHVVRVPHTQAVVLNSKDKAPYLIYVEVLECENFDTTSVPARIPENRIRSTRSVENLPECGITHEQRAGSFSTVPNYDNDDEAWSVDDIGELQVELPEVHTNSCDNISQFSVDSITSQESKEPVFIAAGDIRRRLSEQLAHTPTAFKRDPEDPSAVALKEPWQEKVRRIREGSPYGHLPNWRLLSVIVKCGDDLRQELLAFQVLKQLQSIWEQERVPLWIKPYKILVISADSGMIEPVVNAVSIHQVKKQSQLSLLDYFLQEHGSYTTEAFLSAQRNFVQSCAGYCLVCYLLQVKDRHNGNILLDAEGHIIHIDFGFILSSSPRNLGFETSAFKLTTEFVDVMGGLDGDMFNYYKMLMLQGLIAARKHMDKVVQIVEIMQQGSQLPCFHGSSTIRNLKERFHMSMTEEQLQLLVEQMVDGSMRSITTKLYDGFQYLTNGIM

[8] = molecular target: T2, Alpha-1B adrenergic receptor (Homo sapiens) (UniProt P35368); conditions: Compound concentration 10.0 uM
T2 sequence (whole entry): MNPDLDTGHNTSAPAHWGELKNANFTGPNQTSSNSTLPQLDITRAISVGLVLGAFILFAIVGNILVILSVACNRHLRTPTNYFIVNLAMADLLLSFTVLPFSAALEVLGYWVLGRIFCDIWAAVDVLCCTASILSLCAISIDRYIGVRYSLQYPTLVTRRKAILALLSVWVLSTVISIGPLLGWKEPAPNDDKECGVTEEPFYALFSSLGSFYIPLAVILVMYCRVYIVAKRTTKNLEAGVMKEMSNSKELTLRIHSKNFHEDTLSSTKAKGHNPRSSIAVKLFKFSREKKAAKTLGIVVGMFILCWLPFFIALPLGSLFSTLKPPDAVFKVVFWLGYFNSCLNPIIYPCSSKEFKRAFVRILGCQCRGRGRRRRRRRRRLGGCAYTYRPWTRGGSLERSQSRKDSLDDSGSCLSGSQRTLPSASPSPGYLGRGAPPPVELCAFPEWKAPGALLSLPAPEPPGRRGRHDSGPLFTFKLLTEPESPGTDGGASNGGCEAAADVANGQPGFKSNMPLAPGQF

[9] = system: ALK tyrosine kinase receptor (Homo sapiens), Q9UM73 [C1156Y]; conditions: Compound concentration 1000.0 nM
[10] = molecular target: Serine/threonine-protein kinase RIO1 (Homo sapiens) (UniProt Q9BRS2); conditions: Compound concentration 1000.0 nM
Serine/threonine-protein kinase RIO1 (Homo sapiens), sequence (Q9BRS2 whole entry): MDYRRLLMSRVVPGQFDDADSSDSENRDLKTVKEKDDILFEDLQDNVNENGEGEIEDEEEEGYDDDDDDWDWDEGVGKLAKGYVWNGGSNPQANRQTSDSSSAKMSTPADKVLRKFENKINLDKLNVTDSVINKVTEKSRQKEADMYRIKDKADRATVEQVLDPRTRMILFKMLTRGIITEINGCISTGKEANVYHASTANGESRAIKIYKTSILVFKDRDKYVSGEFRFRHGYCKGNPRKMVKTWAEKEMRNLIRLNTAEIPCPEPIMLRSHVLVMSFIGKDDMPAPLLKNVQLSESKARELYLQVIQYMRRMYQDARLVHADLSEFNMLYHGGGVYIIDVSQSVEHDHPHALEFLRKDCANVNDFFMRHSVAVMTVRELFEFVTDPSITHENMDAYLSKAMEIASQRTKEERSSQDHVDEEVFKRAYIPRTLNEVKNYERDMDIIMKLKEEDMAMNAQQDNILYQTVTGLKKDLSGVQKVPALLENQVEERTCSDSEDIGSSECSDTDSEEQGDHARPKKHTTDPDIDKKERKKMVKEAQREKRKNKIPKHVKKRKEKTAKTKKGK

[11] = molecular target: Cytoplasmic tyrosine-protein kinase BMX (Homo sapiens) (UniProt P51813); conditions: Compound concentration 1000.0 nM
[12] = system: Serine/threonine-protein kinase B-raf (Homo sapiens), P15056 [V600E]; conditions: Compound concentration 1000.0 nM
Serine/threonine-protein kinase B-raf (Homo sapiens), P15056 [V600E], sequence (P15056 whole entry V600E): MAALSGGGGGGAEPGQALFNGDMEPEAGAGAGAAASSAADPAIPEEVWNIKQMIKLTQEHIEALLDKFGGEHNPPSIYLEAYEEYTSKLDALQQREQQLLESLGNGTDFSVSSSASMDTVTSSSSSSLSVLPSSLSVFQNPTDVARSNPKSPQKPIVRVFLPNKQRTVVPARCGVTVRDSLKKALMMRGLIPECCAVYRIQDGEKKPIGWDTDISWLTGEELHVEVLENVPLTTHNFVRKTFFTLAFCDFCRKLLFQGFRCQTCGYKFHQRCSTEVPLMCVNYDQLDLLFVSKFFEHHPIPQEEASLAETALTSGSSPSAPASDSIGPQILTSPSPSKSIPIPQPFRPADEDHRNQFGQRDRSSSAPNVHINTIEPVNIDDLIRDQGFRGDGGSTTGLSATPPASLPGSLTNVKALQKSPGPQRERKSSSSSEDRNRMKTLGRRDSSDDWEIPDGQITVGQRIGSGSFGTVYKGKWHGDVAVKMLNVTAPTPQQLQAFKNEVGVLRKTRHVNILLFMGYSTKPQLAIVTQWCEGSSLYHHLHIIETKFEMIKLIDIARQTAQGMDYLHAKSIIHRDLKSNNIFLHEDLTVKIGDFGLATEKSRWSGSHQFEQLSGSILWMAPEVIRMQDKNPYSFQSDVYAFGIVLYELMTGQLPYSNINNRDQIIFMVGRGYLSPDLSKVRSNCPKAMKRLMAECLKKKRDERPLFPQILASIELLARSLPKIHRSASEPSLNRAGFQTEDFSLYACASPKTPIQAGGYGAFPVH

[13] = molecular target: Serine/threonine-protein kinase tousled-like 1 (Homo sapiens) (UniProt Q9UKI8); conditions: Compound concentration 1000.0 nM
[14] = molecular target: Aurora kinase B (Homo sapiens) (UniProt Q96GD4); conditions: Compound concentration 1000.0 nM
Aurora kinase B (Homo sapiens), sequence (Q96GD4 whole entry): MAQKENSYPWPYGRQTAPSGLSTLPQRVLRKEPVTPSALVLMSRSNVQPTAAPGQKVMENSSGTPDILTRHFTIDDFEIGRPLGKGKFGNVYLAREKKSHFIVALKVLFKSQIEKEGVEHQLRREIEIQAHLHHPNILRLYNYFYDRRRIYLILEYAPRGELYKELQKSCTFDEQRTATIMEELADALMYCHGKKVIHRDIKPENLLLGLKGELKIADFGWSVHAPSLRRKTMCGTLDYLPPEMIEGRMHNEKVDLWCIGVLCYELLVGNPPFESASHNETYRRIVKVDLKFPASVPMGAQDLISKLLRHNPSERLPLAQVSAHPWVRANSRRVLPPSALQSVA

[15] = molecular target: Inhibitor of nuclear factor kappa-B kinase subunit beta (Homo sapiens) (UniProt O14920); conditions: Compound concentration 1000.0 nM
[16] = molecular target: Serine/threonine-protein kinase Nek9 (Homo sapiens) (UniProt Q8TD19); conditions: Compound concentration 1000.0 nM
Serine/threonine-protein kinase Nek9 (Homo sapiens), sequence (Q8TD19 whole entry, the tested form may be a part): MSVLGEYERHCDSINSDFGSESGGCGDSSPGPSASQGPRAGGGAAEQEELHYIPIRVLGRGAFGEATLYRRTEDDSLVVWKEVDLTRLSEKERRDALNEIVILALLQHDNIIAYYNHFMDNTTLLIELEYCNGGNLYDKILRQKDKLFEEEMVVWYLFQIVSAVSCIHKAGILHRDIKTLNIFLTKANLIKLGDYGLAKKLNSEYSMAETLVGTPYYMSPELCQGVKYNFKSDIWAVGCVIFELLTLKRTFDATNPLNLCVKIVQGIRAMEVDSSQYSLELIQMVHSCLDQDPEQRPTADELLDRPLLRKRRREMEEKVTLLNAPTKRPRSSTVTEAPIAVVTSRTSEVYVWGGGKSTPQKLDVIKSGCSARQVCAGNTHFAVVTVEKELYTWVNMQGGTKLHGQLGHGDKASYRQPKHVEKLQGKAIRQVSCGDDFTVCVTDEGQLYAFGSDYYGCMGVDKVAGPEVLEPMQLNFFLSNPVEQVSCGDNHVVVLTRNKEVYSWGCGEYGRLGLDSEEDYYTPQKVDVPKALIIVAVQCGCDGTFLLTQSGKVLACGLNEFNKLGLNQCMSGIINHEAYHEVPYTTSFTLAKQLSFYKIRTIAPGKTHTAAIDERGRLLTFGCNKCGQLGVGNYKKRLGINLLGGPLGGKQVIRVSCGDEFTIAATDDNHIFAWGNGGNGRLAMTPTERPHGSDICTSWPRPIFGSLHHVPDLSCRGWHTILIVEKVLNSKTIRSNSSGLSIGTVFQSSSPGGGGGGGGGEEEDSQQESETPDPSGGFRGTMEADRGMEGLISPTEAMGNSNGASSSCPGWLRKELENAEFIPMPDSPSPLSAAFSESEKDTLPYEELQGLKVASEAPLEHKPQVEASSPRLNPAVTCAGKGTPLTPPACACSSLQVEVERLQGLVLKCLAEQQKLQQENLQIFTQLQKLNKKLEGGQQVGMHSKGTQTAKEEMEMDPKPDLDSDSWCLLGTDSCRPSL

[17] = molecular target: LIM domain kinase 2 (Homo sapiens) (UniProt P53671); conditions: Compound concentration 1000.0 nM
[18] = system: Receptor-type tyrosine-protein kinase FLT3 (Homo sapiens), P36888 [D835V]; conditions: Compound concentration 1000.0 nM
[19] = molecular target: Mitogen-activated protein kinase 3 (Homo sapiens) (UniProt P27361); conditions: Compound concentration 1000.0 nM
[20] = molecular target: T3, Alpha-2B adrenergic receptor (Homo sapiens) (UniProt P18089); conditions: Compound concentration 10.0 uM
T3 sequence (whole entry): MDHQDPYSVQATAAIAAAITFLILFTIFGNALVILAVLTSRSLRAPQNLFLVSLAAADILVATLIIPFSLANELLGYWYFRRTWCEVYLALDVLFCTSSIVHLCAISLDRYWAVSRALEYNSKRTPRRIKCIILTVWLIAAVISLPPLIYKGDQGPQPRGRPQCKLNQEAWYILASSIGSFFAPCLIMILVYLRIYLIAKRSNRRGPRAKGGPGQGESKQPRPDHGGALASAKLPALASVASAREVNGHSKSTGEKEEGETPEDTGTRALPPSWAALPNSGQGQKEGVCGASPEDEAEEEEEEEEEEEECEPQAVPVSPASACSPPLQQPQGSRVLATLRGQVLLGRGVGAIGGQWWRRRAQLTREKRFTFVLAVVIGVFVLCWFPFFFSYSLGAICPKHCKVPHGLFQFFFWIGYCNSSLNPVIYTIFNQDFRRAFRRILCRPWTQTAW

CNC(=O)Nc1ccc2c(c1)CC[C@@]21OC(=O)N(CC(=O)N(Cc2ccc(F)cc2)[C@@H](C)C(F)(F)F)C1=O [A-485]
inactive: residual activity [1] 70% | residual activity [2] 88% | residual activity [3] 70% | inhibition [4] -0.28% | residual activity [5] 83% | inhibition [6] -4% | residual activity [7] 74% | inhibition [8] 1.93% | residual activity [9] 88% | residual activity [10] 100% | residual activity [11] 72% | residual activity [12] 100% | residual activity [13] 88% | residual activity [14] 86% | residual activity [15] 83% | residual activity [16] 78% | residual activity [17] 88% | residual activity [18] 76% | residual activity [19] 92% | inhibition [20] 26.5%

CNC(=O)Nc1ccc2c(c1)[C@@]1(CC2)OC(=O)N(CC(=O)N(Cc2ccc(F)cc2)[C@@H](C)C(F)(F)F)C1=O [A-486]
inactive: residual activity [1] 82% | residual activity [2] 100% | residual activity [3] 96% | inhibition [4] 3.15% | residual activity [5] 63% | inhibition [6] -5% | residual activity [7] 71% | inhibition [8] -1.33% | residual activity [9] 100% | residual activity [10] 100% | residual activity [11] 99% | residual activity [12] 96% | residual activity [13] 100% | residual activity [14] 93% | residual activity [15] 92% | residual activity [16] 95% | residual activity [17] 90% | residual activity [18] 81% | residual activity [19] 100% | inhibition [20] 10.2%
